Measured values reported in patent US11878965B2, “Inhibitors of peptidylarginine deiminases” (Gilead Sciences, Inc., priority 2020, dated 2024).

target: human PAD4 (Homo sapiens (Human), UniProt Q9UM07); assay: In Vitro PAD4 BAEE Biochemical Assay; conditions: human PAD4, BAEE substrate; 5 nM PAD4, 2 mM calcium chloride, 3 mM BAEE; geometric mean of multiple experiments
Method in brief: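 Recombinant human PAD4 (His-SUMO tag removed, E. coli-expressed), 5 nM, preincubated with compound and 2 mM CaCl2 30 min at 25 °C in MOPS pH 7.6 with DTT; 3 mM BAEE added for 2 h at 25 °C, EDTA stop. Released ammonia detected by o-phthalaldehyde/DTT fluorescence (ex 405, em 535 nm).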

Chain of human PAD4 (Q9UM07 2-663): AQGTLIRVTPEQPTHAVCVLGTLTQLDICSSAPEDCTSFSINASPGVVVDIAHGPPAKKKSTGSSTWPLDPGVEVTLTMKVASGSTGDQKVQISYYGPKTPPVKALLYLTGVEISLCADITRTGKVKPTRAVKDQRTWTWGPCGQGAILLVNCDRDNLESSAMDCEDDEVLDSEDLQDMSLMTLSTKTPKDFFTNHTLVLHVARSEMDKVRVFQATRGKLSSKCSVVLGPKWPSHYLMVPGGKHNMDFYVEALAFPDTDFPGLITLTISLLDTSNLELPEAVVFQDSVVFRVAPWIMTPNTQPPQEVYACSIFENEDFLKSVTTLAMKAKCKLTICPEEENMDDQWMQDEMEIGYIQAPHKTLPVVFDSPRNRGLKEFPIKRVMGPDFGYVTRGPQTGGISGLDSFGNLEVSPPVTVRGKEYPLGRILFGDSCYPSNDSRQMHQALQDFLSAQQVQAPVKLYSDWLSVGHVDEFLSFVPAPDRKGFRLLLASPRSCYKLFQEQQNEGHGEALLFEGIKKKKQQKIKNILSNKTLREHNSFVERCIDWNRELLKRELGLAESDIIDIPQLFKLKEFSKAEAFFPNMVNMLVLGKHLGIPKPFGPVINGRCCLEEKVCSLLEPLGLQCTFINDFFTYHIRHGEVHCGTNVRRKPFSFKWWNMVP

| Compound | IC50 |
| --- | --- |
| COc1cc(C(=O)N2C[C@H](N)CCN2C)cc2nc(-c3cc4ccc([C@@H](C)NC(=O)c5ccc(F)cc5)nc4n3CC3CC3)n(C)c12 [Example 155, N-((R)-1-(2-(5-((R)-5-amino-2-methylhexahydropyridazine-1-carbonyl)-7-methoxy-1-methyl-1H-benzo[d]imidazol-2-yl)-1-(cyclopropylmethyl)-1H-pyrrolo[2,3-b]pyridin-6-yl)ethyl)-4-fluorobenzamide] | 165 nM |
| COc1cc(C(=O)N2C[C@H](N)CCN2C)cc2nc(-c3cc4ccc([C@@H](C)NC(=O)c5ncccc5C)nc4n3CC3CC3)n(C)c12 [Example 175, N-((R)-1-(2-(5-((R)-5-amino-2-methylhexahydropyridazine-1-carbonyl)-7-methoxy-1-methyl-1H-benzo[d]imidazol-2-yl)-1-(cyclopropylmethyl)-1H-pyrrolo[2,3-b]pyridin-6-yl)ethyl)-3-methylpicolinamide] | 139 nM |
| COc1cc(C(=O)N2[C@H]3CC[C@@H]2[C@H](N)C3)cc2nc(-c3cc4ccc([C@@H](C)NC(=O)N5CC(O)C5)nc4n3CC3CC3)n(C)c12 [Example 236, N-((R)-1-(2-(5-((1R,2R,4S)-2-amino-7-azabicyclo[2.2.1]heptane-7-carbonyl)-7-methoxy-1-methyl-1H-benzo[d]imidazol-2-yl)-1-(cyclopropylmethyl)-1H-pyrrolo[2,3-b]pyridin-6-yl)ethyl)-3-hydroxyazetidine-1-carboxamide] | 51.3 nM |
| C[C@@H](NC(=O)C(C)(C)C)c1ccc2cc(-c3nc4cc(C(=O)N[C@H]5CNCC[C@@H]5F)c(F)cc4n3C)n(CC3CC3)c2n1 [Example 216, 2-(1-(cyclopropylmethyl)-6-((R)-1-pivalamidoethyl)-1H-pyrrolo[2,3-b]pyridin-2-yl)-6-fluoro-N-((3S,4S)-4-fluoropiperidin-3-yl)-1-methyl-1H-benzo[d]imidazole-5-carboxamide] | 158 nM |
| COc1cc(C(=O)N2CCC[C@@H](N)C2)cc2nc(-c3cc4ccc(N5CCCS5(=O)=O)nc4n3CC3CC3)n(C)c12 [Example 96, (R)-(3-aminopiperidin-1-yl)(2-(1-(cyclopropylmethyl)-6-(1,1-dioxidoisothiazolidin-2-yl)-1H-pyrrolo[2,3-b]pyridin-2-yl)-7-methoxy-1-methyl-1H-benzo[d]imidazol-5-yl) methanone] | 1050 nM |
| COc1cc(C(=O)N2[C@H]3CC[C@@H]2[C@H](N)C3)cc2nc(-c3cc4ccc([C@@H](C)NS(=O)(=O)c5ccc(F)cc5)nc4n3CC3CC3)n(C)c12 [Example 242, N-((R)-1-(2-(5-((1R,2R,4S)-2-amino-7-azabicyclo[2.2.1]heptane-7-carbonyl)-7-methoxy-1-methyl-1H-benzo[d]imidazol-2-yl)-1-(cyclopropylmethyl)-1H-pyrrolo[2,3-b]pyridin-6-yl)ethyl)-4-fluorobenzenesulfonamide] | 107 nM |
| COc1cc(C(=O)N2CCC[C@@H](N)C2)cc2nc(-c3cc4ccc(N(C)S(=O)(=O)C(C)C)nc4n3CC3CC3)n(C)c12 [Example 9, (R)-N-(2-(5-(3-aminopiperidine-1-carbonyl)-7-methoxy-1-methyl-1H-benzo[d]imidazol-2-yl)-1-(cyclopropylmethyl)-1H-pyrrolo [2,3-b]pyridin-6-yl)-N-methylpropane-2-sulfonamide] | 238 nM |
| COc1cc(C(=O)N2C[C@H](N)CCN2C)cc2nc(-c3cc4ccc([C@@H](C)NC(=O)c5cccc(F)c5C)nc4n3CC3CC3)n(C)c12 [Example 212, N-((R)-1-(2-(5-((R)-5-amino-2-methylhexahydropyridazine-1-carbonyl)-7-methoxy-1-methyl-1H-benzo[d]imidazol-2-yl)-1-(cyclopropylmethyl)-1H-pyrrolo[2,3-b]pyridin-6-yl)ethyl)-3-fluoro-2-methylbenzamide] | 170 nM |
| COc1cc(C(=O)N2[C@H]3CC[C@@H]2[C@H](N)C3)cc2nc(-c3cc4ccc([C@@H](C)NC(=O)c5ccccc5)cc4n3CC3CC3)n(C)c12 [Example 136, N-((R)-1-(2-(5-((1R,2R,4S)-2-amino-7-azabicyclo[2.2.1]heptane-7-carbonyl)-7-methoxy-1-methyl-1H-benzo[d]imidazol-2-yl)-1-(cyclopropylmethyl)-1H-indol-6-yl)ethyl)benzamide] | 27.6 nM |
| CNC(=O)N(C)c1ccc2cc(-c3nc4cc(C(=O)N5CCC[C@@H](N)C5)cc(OC)c4n3C)n(CC3CC3)c2n1 [Example 116, (R)-1-(2-(5-(3-aminopiperidine-1-carbonyl)-7-methoxy-1-methyl-1H-benzo[d]imidazol-2-yl)-1-(cyclopropylmethyl)-1H-pyrrolo[2,3-b]pyridin-6-yl)-1,3-dimethylurea] | 496 nM |

Next, values leading:

| IC50 | Compound |
| --- | --- |
| 32.2 nM | COc1cc(C(=O)N2[C@H]3CC[C@@H]2[C@H](N)C3)cc2nc(-c3cc4ccc([C@@H](C)NC(=O)C56CC(F)(C5)C6)cc4n3CC3CC3)n(C)c12 [Example 133, N-((R)-1-(2-(5-((1R,2R,4S)-2-amino-7-azabicyclo[2.2.1]heptane-7-carbonyl)-7-methoxy-1-methyl-1H-benzo[d]imidazol-2-yl)-1-(cyclopropylmethyl)-1H-indol-6-yl)ethyl)-3-fluorobicyclo[1.1.1]pentane-1-carboxamide] |
| 78.4 nM | COc1cc(C(=O)N2CCC[C@@H](N)C2)cc2nc(-c3cc4ccc([C@@H](C)NC(=O)C(C)(C)C)nc4n3CC3CC3)n(C)c12 [Example 119, N-((R)-1-(2-(5-((R)-3-aminopiperidine-1-carbonyl)-7-methoxy-1-methyl-1H-benzo[d]imidazol-2-yl)-1-(cyclopropylmethyl)-1H-pyrrolo[2,3-b]pyridin-6-yl)ethyl)pivalamide] |
| 57.2 nM | COc1cc(C(=O)N2C[C@H](N)[C@@H]3CC[C@H]2C3)cc2nc(-c3cc4ccc([C@@H](C)NC(=O)C56CC(F)(C5)C6)nc4n3CC3CC3)n(C)c12 [Example 223, N-[(1R)-1-[2-[5-[(1S,4R,5R)-4-amino-2-azabicyclo[3.2.1]octane-2-carbonyl]-7-methoxy-1-methyl-benzimidazol-2-yl]-1-(cyclopropylmethyl)pyrrolo[2,3-b]pyridin-6-yl]ethyl]-3-fluorobicyclo[1.1.1]pentane-1-carboxamide] |
| 122 nM | COc1cc(C(=O)N2CCC[C@@H](N)C2)cc2nc(-c3cc4ccc(N(C)S(C)(=O)=O)nc4n3CC3CC3)n(C)c12 [Example 3, (R)-N-(2-(5-(3-aminopiperidine-1-carbonyl)-7-methoxy-1-methyl-1H-benzo[d]imidazol-2-yl)-1-(cyclopropylmethyl)-1H-pyrrolo [2,3-b]pyridin-6-yl)-N-methylmethanesulfonamide] |
| 110 nM | [2H][C@@]1(N)CCCN(C(=O)c2cc(OC)c3c(c2)nc(-c2cc4ccc(N(C(F)F)S(C)(=O)=O)nc4n2CC2CC2)n3C)C1 [Example 45, (R)-N-(2-(5-(3-aminopiperidine-1-carbonyl-3-d)-7-methoxy-1-methyl-1H-benzo[d]imidazol-2-yl)-1-(cyclopropylmethyl)-1H-pyrrolo[2,3-b]pyridin-6-yl)-N-(difluoromethyl) methanesulfonamide] |
| 29.6 nM | COc1cc(C(=O)N2CCC[C@@H](N)C2)cc2nc(-c3cc4ccc(N5[C@@H](C)CCCS5(=O)=O)nc4n3CC3CC3)n(C)c12 [Example 105, ((R)-3-aminopiperidin-1-yl)(2-(1-(cyclopropylmethyl)-6-((S)-3-methyl-1,1-dioxido-1,2-thiazinan-2-yl)-1H-pyrrolo[2,3-b]pyridin-2-yl)-7-methoxy-1-methyl-1H-benzo[d]imidazol-5-yl) methanone] |
| 106 nM | COc1cc(C(=O)N2CCC[C@@H](N)C2)cc2nc(-c3cc4ccc(N(C5CC5)S(=O)(=O)C5CC5)nc4n3CC3CC3)n(C)c12 [Example 26, (R)-N-(2-(5-(3-aminopiperidine-1-carbonyl)-7-methoxy-1-methyl-1H-benzo[d]imidazol-2-yl)-1-(cyclopropylmethyl)-1H-pyrrolo [2,3-b]pyridin-6-yl)-N-cyclopropylcyclo-propanesulfonamide] |
| 74.9 nM | COc1cc(C(=O)N2C[C@H](N)CCN2C)cc2nc(-c3cc4ccc([C@@H](C)NC(=O)c5nccc(C)n5)nc4n3CC3CC3)n(C)c12 [Example 181, N-((R)-1-(2-(5-((R)-5-amino-2-methylhexahydropyridazine-1-carbonyl)-7-methoxy-1-methyl-1H-benzo[d]imidazol-2-yl)-1-(cyclopropylmethyl)-1H-pyrrolo[2,3-b]pyridin-6-yl)ethyl)-4-methylpyrimidine-2-carboxamide] |
| 61 nM | COc1cc(C(=O)N2C[C@H](N)[C@@H]3CC[C@H]2C3)cc2nc(-c3cc4ccc([C@@H](C)NC(=O)C(C)(C)C)nc4n3CC3CC3)n(C)c12 [Example 221, N-((R)-1-(2-(5-((1S,4R,5R)-4-amino-2-azabicyclo[3.2.1]octane-2-carbonyl)-7-methoxy-1-methyl-1H-benzo[d]imidazol-2-yl)-1-(cyclopropylmethyl)-1H-pyrrolo[2,3-b]pyridin-6-yl)ethyl)pivalamide] |

same assay, conditions: recombinant PAD4 5 nM, 2 mM calcium chloride, 3 mM BAEE substrate; geometric mean of multiple experiments

| IC50 | Compound |
| --- | --- |
| 65.8 nM | [2H]C1([2H])[C@H](N)[C@@H]2CC[C@@H](C2)N1C(=O)c1cc(OC)c2c(c1)nc(-c1cc3ccc(C(C)NC(=O)C45CC(F)(C4)C5)nc3n1CC1CC1)n2C (stereo partly drawn) [Example 301, N-((R)-1-(2-(5-((1S,4R,5R)-4-amino-2-azabicyclo[3.2.1]octane-2-carbonyl-3,3-d2)-7-methoxy-1-methyl-1H-benzo[d]imidazol-2-yl)-1-(cyclopropylmethyl)-1H-pyrrolo[2,3-b]pyridin-6-yl)ethyl)-3-fluorobicyclo[1.1.1]pentane-1-carboxamide] |
